Key:
[1] = target: human RORγ ligand binding domain (GST-hRORγ-LBD) (Homo sapiens (Human), UniProt P51449); assay: TR-FRET assay (biochemical cofactor interaction assay, GST-hRORγ-LBD / TRAP220 peptide)
From the text: RORγ is an orphan member of the nuclear receptor (NR) family displaying constitutive activity. The activity of nuclear receptors can be modulated by ligand-induced cofactor protein interactions. For example, agonist binding leads to recruitment of coactivator protein, and antagonist binding either blocks coactivator interaction or facilitates the recruitment of corepressors. […] The conformational change induced by ligand binding influences interactions with LXXLL motif peptides.
RORγ (t) is a thymus-specific isoform of RORγ which is widely expressed. It shares the same ligand binding domain (LBD) sequence with RORγ. Thus, a screen using the LBD will yield antagonists targeting both RORγ and RORγt.
In order to identify compounds which block activity of the human nuclear receptor Retinoid-related Orphan Receptor gamma (RORγ) a biochemical cofactor interaction assay based on the TR-FRET principle is performed. […] The ligand-binding domain (LBD) of RORγ is expressed as fusion protein with GST in […] cells using the vector pDEST15. Cells are lysed by lysozyme-treatment and sonication, and the fusion proteins purified over glutathione sepharose (Pharmacia) according to the manufacturers instructions. The strong constitutive interaction is disrupted upon binding of functional antagonists. The strength of the interaction is monitored by TR-FRET between streptavidine APC interacting with the biotinylated peptide and Europium-labelled Anti-GST.

[2] = target: RORγ Ligand binding domain (RORγ-LBD, aa 238-497, NP_001001523) (Homo sapiens (Human), UniProt P51449); assay: ROR γ GAI4 Reporter Gene Assay (Mammalian one-hybrid, M1H) in 293T cells; assay type: cell-based
From the text: ROR γ GAI4 Reporter Gene Assay
A Mammalian one-hybrid system is used to perform a cell-based functional transactivation assay for detecting RORγ activity modulators.
The Mammalian-1-Hybrid is derived from the Mammalian-2-Hybrid setup. Whereas in the latter, the binding partners are defined in their role as interaction, transactivation and DNA-binding components, the Mammalian-1-Hybrid makes use of the fact that all mammalian cell types express a set of Nuclear Receptors and their associated cofactors. […] A Gal4 minimal promoter driven luciferase construct (pFR-Luc from Stratagene, containing a synthetic promoter with five tandem repeats of the yeast GAL4 binding sites controlling expression of the Photinus pyralis luciferase gene) is used as reporter. The Gal4-DBD-NR-LBD fusion protein by itself cannot initiate transcription and is dependent on the presence of cofactors present in the cellular system used.
In order to rule out cytotoxic and unspecific transcriptional compound effects a transfection with a firefly luciferase driven by the constitutive CMV promoter is performed in parallel.
After transfection 18 μl complete MEM medium containing 3% charcoal-dextran treated FBS is added as well as 4 μl test compounds (DMSO stocks prediluted in OptiMem (Invitrogen)) followed by incubation for 16-24 h at 37° C., 5% CO2 and 90% rH.
Firefly luciferase activity is measured using the Promega ONE-Glo™ Luciferase Assay System.

Chain of RORγ Ligand binding domain (RORγ-LBD, aa 238-497, NP_001001523) (P51449 259-518): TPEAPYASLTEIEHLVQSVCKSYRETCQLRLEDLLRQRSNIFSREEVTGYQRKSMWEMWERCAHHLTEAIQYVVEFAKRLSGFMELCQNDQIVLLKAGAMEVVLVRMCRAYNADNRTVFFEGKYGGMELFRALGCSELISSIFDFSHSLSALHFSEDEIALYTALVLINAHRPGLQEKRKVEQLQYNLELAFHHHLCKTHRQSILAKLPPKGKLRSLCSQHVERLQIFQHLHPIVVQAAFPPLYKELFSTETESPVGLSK
Chain of human RORγ ligand binding domain (GST-hRORγ-LBD) (P51449 269-508): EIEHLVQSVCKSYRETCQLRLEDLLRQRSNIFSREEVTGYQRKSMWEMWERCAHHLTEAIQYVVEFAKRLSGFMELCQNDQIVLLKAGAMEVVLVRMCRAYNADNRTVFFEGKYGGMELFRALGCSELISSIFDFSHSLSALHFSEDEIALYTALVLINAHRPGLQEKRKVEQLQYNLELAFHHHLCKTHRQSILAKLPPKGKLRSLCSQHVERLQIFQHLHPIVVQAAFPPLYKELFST

Structure (SMILES)	IC50 [1] [µM]	IC50 [2] [µM]
Cc1cccc(CN2CCn3nnnc3C2c2cccc(F)c2)c1 (stereo not shown) [Compound 116, 8-(3-Fluoro-phenyl)-7-(3-methyl-benzyl)-5,6,7,8-tetrahydro-tetrazolo[1,5-a]pyrazine]	0.99 to 9.9	0.99 to 9.9
Fc1cccc(C2c3nnnn3CCN2Cc2cccs2)c1 (stereo not shown) [Compound 117, 8-(3-Fluoro-phenyl)-7-thiophen-2-ylmethyl-5,6,7,8-tetrahydro-tetrazolo[1,5-a]pyrazine]	0.99 to 9.9	9.9 to 40
Fc1ccccc1C1c2nnnn2CCN1Cc1cccc(Br)c1 (stereo not shown) [Compound 119, 7-(3-Bromo-benzyl)-8-(2-fluoro-phenyl)-5,6,7,8-tetrahydro-tetrazolo[1,5-a]pyrazine]	0.99 to 9.9	0.99 to 9.9
Fc1ccc(C2c3nnnn3CCN2Cc2cccs2)cc1 (stereo not shown) [Compound 125, 8-(4-Fluoro-phenyl)-7-thiophen-2-ylmethyl-5,6,7,8-tetrahydro-tetrazolo[1,5-a]pyrazine]	0.99 to 9.9	9.9 to 40
COc1ccc(OC)c(C2c3nnnn3CCN2Cc2ccc(F)cc2)c1 (stereo not shown) [Compound 128, 8-(2,5-Dimethoxy-phenyl)-7-(4-fluoro-benzyl)-5,6,7,8-tetrahydro-tetrazolo[1,5-a]pyrazine]	0.99 to 9.9	9.9 to 40
CC(C)Oc1ccc(C2c3nnnn3CCN2Cc2ccc3c(c2)OCO3)cc1 (stereo not shown) [Compound 131, 7-Benzo[1,3]dioxol-5-ylmethyl-8-(4-isopropoxy-phenyl)-5,6,7,8-tetrahydro-tetrazolo[1,5-a]pyrazine]	0.99 to 9.9	9.9 to 40
Fc1ccc(CN2CCn3nnnc3C2c2ccc3c(c2)OCCO3)cc1 (stereo not shown) [Compound 133, 8-(2,3-Dihydro-benzo[1,4]dioxin-6-yl)-7-(4-fluoro-benzyl)-5,6,7,8-tetrahydro-tetrazolo[1,5-a]pyrazine]	0.99 to 9.9	9.9 to 40
CCOc1ccc(C2c3nnnn3CCN2Cc2ccc(F)cc2)cc1 (stereo not shown) [Compound 134, 8-(4-Ethoxy-phenyl)-7-(4-fluoro-benzyl)-5,6,7,8-tetrahydro-tetrazolo[1,5-a]pyrazine]	0.99 to 9.9	9.9 to 40
Cc1cccc(CN2CCn3nnnc3C2c2ccc(F)cc2F)c1 (stereo not shown) [Compound 136, 8-(2,4-Difluoro-phenyl)-7-(3-methyl-benzyl)-5,6,7,8-tetrahydro-tetrazolo[1,5-a]pyrazine]	0.99 to 9.9	9.9 to 40
Fc1ccccc1C1c2nnnn2CCN1Cc1cccs1 (stereo not shown) [Compound 137, 8-(2-Fluoro-phenyl)-7-thiophen-2-ylmethyl-5,6,7,8-tetrahydro-tetrazolo[1,5-a]pyrazine]	0.99 to 9.9	9.9 to 40
Cc1ccc(CN2CCn3nnnc3C2c2ccc(OC(C)C)cc2)o1 (stereo not shown) [Compound 142, 8-(4-Isopropoxy-phenyl)-7-(5-methyl-furan-2-ylmethyl)-5,6,7,8-tetrahydro-tetrazolo[1,5-a]pyrazine]	9.9 to 40	9.9 to 40
COc1ccc(C2c3nnnn3CCN2Cc2ccc(F)cc2)cc1 (stereo not shown) [Compound 146, 7-(4-Fluoro-benzyl)-8-(4-methoxy-phenyl)-5,6,7,8-tetrahydro-tetrazolo[1,5-a]pyrazine]	9.9 to 40	0.99 to 9.9
CC(C)c1nn(-c2ccccc2)cc1C1c2nnnn2CCN1Cc1cnn2ccccc12 (stereo not shown) [Compound 154, 8-(3-Isopropyl-1-phenyl-1H-pyrazol-4-yl)-7-pyrazolo[1,5-a]pyridin-3-ylmethyl-5,6,7,8-tetrahydro-tetrazolo[1,5-a]pyrazine]	9.9 to 40	0.99 to 9.9
Cc1c(CN2CCn3nnnc3C2c2cn(-c3ccccc3)nc2C(C)C)cnn1C (stereo not shown) [Compound 156, 7-(1,5-Dimethyl-1H-pyrazol-4-ylmethyl)-8-(3-isopropyl-1-phenyl-1H-pyrazol-4-yl)-5,6,7,8-tetrahydro-tetrazolo[1,5-a]pyrazine]	9.9 to 40	9.9 to 40
CC(C)(C)c1nn(Cc2ccccc2)cc1C1c2nnnn2CCN1Cc1cccs1 (stereo not shown) [Compound 160, 8-(1-Benzyl-3-tert-butyl-1H-pyrazol-4-yl)-7-thiophen-2-ylmethyl-5,6,7,8-tetrahydro-tetrazolo[1,5-a]pyrazine]	9.9 to 40	0.99 to 9.9
CC(C)c1nn(-c2ccccc2)cc1C1c2nnnn2CCN1Cc1cnn(Cc2ccccc2)c1 (stereo not shown) [Compound 161, 7-(1-Benzyl-1H-pyrazol-4-ylmethyl)-8-(3-isopropyl-1-phenyl-1H-pyrazol-4-yl)-5,6,7,8-tetrahydro-tetrazolo[1,5-a]pyrazine]	0.99 to 9.9	0.99 to 9.9
Fc1cccc(C2c3nnnn3CCN2Cc2cccc(Br)c2)c1 (stereo not shown) [Compound 163, 7-(3-Bromo-benzyl)-8-(3-fluoro-phenyl)-5,6,7,8-tetrahydro-tetrazolo[1,5-a]pyrazine]	0.01 to 0.99	9.9 to 40

— US9688684B2, “Substituted tetrazolo[1,5-a]pyrazines as ROR-gamma inhibitors” (Merck Patent GmbH, priority 2013, dated 2017)
